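Five compound concentrations were applied to cells in 96-well plates for 48 hours; endpoints were derived by simple linear interpolation of the resulting dose-response curve. At the GI50, growth is halved. TGI: total growth inhibition.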
What was measured:
Experiment in all cases: NCI tumour cell line growth inhibition, 48 h
A549 NSCLC = tested on: A549 NSCLC
CAKI-1 renal = tested on: CAKI-1 renal
HOP-92 NSCLC = tested on: HOP-92 NSCLC
HT29 colon = tested on: HT29 colon
K-562 leukemia = tested on: K-562 leukemia
M14 melanoma = tested on: M14 melanoma
MALME-3M melanoma = tested on: MALME-3M melanoma
SK-MEL-5 melanoma = tested on: SK-MEL-5 melanoma
TK-10 renal = tested on: TK-10 renal
U251 CNS = tested on: U251 CNS

SMILES | TGI (A549 NSCLC) [µM] | TGI (CAKI-1 renal) [µM] | TGI (HOP-92 NSCLC) [µM] | TGI (HT29 colon) [µM] | TGI (K-562 leukemia) [µM] | TGI (M14 melanoma) [µM] | TGI (MALME-3M melanoma) [µM] | TGI (SK-MEL-5 melanoma) [µM] | TGI (TK-10 renal) [µM] | TGI (U251 CNS) [µM] | GI50 (A549 NSCLC) [µM] | GI50 (CAKI-1 renal) [µM] | GI50 (HOP-92 NSCLC) [µM] | GI50 (HT29 colon) [µM] | GI50 (K-562 leukemia) [µM] | GI50 (M14 melanoma) [µM] | GI50 (MALME-3M melanoma) [µM] | GI50 (SK-MEL-5 melanoma) [µM] | GI50 (TK-10 renal) [µM] | GI50 (U251 CNS) [µM]
COC(=O)C1C(O)CC(c2ccccn2)N(Cc2ccccc2)C1c1ccccn1 (stereo not given) | > 100 | > 100 | > 100 | > 100 | > 100 | > 100 | > 100 | > 100 | > 100 | > 100 | – | – | – | – | – | – | – | – | – | –
OC1c2ccccc2C2(O)C1C(c1ccccc1)C(c1ccccc1)C2(O)c1ccccc1 (stereo not given) | 81.2 | > 100 | 23.9 | 22.8 | 50 | 28.3 | 26.9 | 21.7 | 85.4 | 23.1 | – | – | – | – | – | – | – | – | – | –
Oc1cc(O)c(Oc2cccc(O)c2O)c(O)c1 | > 100 | > 100 | > 100 | > 100 | > 100 | > 100 | > 100 | 38.7 | > 100 | > 100 | – | – | – | – | – | – | – | – | – | –
O=Cc1ccccc1OCCOc1cc(OCCOc2ccccc2C=O)c(OCCOc2ccccc2C=O)cc1OCCOc1ccccc1C=O | > 100 | > 100 | > 79.8 | > 100 | > 100 | > 100 | > 100 | > 100 | 96.8 | > 50.1 | – | – | – | – | – | – | – | – | – | –
COc1ccc(-c2oc3c(OC)c(OC)c(OC)c(O)c3c(=O)c2OC)cc1OC | > 100 | > 100 | 18.4 | > 78.2 | > 54.3 | > 100 | 97.1 | 41.7 | > 100 | > 100 | – | – | – | – | – | – | – | – | – | –
CCOC(=O)C1(Br)C(c2ccccc2)NC(=O)NC1(C)Br (stereo not given) | > 100 | > 62.4 | > 93.5 | > 100 | > 94.5 | > 100 | > 100 | > 100 | > 100 | 49.4 | – | – | – | – | – | – | – | – | – | –
CC1CC2CC(=O)CC3(C1)C2CCCN3CCCO (stereo not given) | > 100 | > 100 | > 100 | > 100 | > 100 | > 100 | > 100 | > 100 | > 100 | > 100 | – | – | – | – | – | – | – | – | – | –
COC1=CC(=O)C2C(C1=O)[C@@H]1c3ccccc3C[C@H]21 (stereo not given in full) | > 100 | > 100 | > 100 | > 100 | > 100 | > 100 | > 100 | > 100 | > 100 | > 100 | – | – | – | – | – | – | – | – | – | –
OCCCOC(c1ccccc1)(c1ccccc1)c1ccccc1 | > 100 | > 100 | > 100 | 92.8 | > 100 | > 100 | > 100 | > 100 | > 100 | > 100 | – | – | – | – | – | – | – | – | – | –
C1C[OH+]CC[OH+]CCNCC[OH+]CC[OH+]CCN1.[Cl-].[Pt+4] | > 100 | > 100 | > 100 | > 100 | > 100 | > 100 | > 100 | > 100 | > 100 | > 100 | > 100 | > 100 | > 100 | > 100 | > 100 | > 100 | > 100 | > 100 | > 100 | > 100
COC[C@@H](N=CN1CCc2cc(OC)c(OC)cc2[C@@H]1C)C(C)(C)C | > 100 | > 100 | > 100 | > 100 | > 100 | > 100 | > 100 | > 100 | > 100 | > 100 | – | – | – | – | – | – | – | – | – | –
COc1ccccc1/C=C1\CCC(CCN(C)C)(C2=CCCC2)C1=O (stereo not given) | 64.4 | 57.2 | 46.6 | 39.3 | 56.2 | 31.3 | 30.3 | 26.7 | 37.5 | 31.1 | – | – | – | – | – | – | – | – | – | –
O=C(O)[C@@H]1[C@H](C(=O)O)[C@H](C(=O)O)C[C@@H]1C(=O)O | > 100 | > 100 | > 100 | > 100 | > 100 | > 100 | > 100 | > 100 | > 100 | > 100 | – | – | – | – | – | – | – | – | – | –
CCn1c(C(=O)N(C2CC2)C2CC2)cc2c3c(ncn3C)c(Nc3cc(C)n(C)n3)nc21 | > 100 | > 100 | > 100 | > 100 | > 100 | > 100 | > 100 | > 100 | > 100 | > 100 | > 100 | 16.8 | > 100 | > 100 | > 100 | > 100 | > 100 | > 100 | > 100 | > 100
